Reference: US12336982B2 (RODEO THERAPEUTICS CORPORATION, priority 2018, dated 2025)

Biological target: T1, recombinant 15-PGDH (Homo sapiens, UniProt P15428)
T1 sequence (P15428 1-266): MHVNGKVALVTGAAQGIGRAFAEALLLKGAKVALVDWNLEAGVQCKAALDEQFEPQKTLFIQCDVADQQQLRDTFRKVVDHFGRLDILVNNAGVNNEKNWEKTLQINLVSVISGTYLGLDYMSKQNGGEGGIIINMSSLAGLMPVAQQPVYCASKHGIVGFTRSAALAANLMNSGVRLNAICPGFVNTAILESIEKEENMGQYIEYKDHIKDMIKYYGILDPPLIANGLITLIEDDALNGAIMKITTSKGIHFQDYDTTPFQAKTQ
Assay type: biochemical
Details: recombinant human 15-PGDH, in vitro; read-out: PDGH Assay-IC50
Excerpt: The Recombinant 15-PGDH is human unless otherwise specified.

## CS(=O)(=O)Nc1ncc(-c2cc(-c3cccnc3)c3c(N)c([S+]([O-])C4CCC4)sc3n2)cn1 (centres unmarked) [Example 93]
  IC50: < 2.5 nM

## COCC[S+]([O-])c1sc2nc(-c3cnc(N(C)CCO)nc3)cc(C(F)(F)F)c2c1N (centres unmarked) [Example 186]
  IC50: 2.5 to 10 nM

## COCCC[S@@+]([O-])c1sc2nc(-c3cncnc3)cc(-c3ccncn3)c2c1N [Example 238]
  IC50: < 2.5 nM

## Cn1nccc1-c1cc(-c2cnc3c(c2)nnn3C)nc2sc([S@@+]([O-])C3CCC3)c(N)c12 [Example 327]
  IC50: ≥ 10 nM

## COCC[S+]([O-])c1sc2nc(-c3cnc4c(c3)CN(C)C4=O)cc(C3CCC3)c2c1N (centres unmarked) [Example 385]
  IC50: < 2.5 nM

## COCC[S+]([O-])c1sc2nc(-c3cnc4ncn(C)c4c3)cc(C3CC3)c2c1N (centres unmarked) [Example 404]
  IC50: < 2.5 nM

## CN(C)c1cc(-c2cc(-c3cnc(N)nc3)nc3sc([S@+]([O-])C4CCC4)c(N)c23)n(C)n1 [Example 415]
  IC50: < 2.5 nM

## COCCC[S@+]([O-])c1sc2nc(-c3cncnc3)cc(-c3ncccn3)c2c1N [Example 112]
  IC50: ≥ 10 nM

## COCCC[S+]([O-])c1sc2nc(-c3cnc4c(cnn4C)c3)cc(-c3ccccc3)c2c1N (centres unmarked) [Example 116]
  IC50: 2.5 to 10 nM

## COCCC[S+]([O-])c1sc2nc(-c3cnc(NCCO)nc3)cc(-c3ccccc3)c2c1N (centres unmarked) [Example 125]
  IC50: < 2.5 nM

## Nc1c([S+]([O-])C2CCC2)sc2nc(-c3cnc(N4CC(O)C4)nc3)cc(C3CC3)c12 (centres unmarked) [Example 250]
  IC50: < 2.5 nM

## COCCC[S+]([O-])c1sc2nc(-c3cnn(C)c3)cc(C(F)(F)F)c2c1N (centres unmarked) [Example 427]
  IC50: < 2.5 nM

## COCCC[S+]([O-])c1sc2nc(-c3cnc(N(C)CCO)nc3)cc(C(F)(F)F)c2c1N (centres unmarked) [Example 187]
  IC50: 2.5 to 10 nM

## COCCC[S+]([O-])c1sc2nc(-c3cnc(NCCO)nc3)cc(C(F)(F)F)c2c1N (centres unmarked) [Example 139]
  IC50: 2.5 to 10 nM

## COCC[S+]([O-])c1sc2nc(-c3cnc(N)nc3)cc(C(F)(F)F)c2c1N (centres unmarked) [Example 132]
  IC50: < 2.5 nM

## Cn1cc(-c2cc(-c3ccc(OCCO)cc3)nc3sc([S+]([O-])C4CCC4)c(N)c23)cn1 (centres unmarked) [Example 413]
  IC50: < 2.5 nM

## Cn1nccc1-c1cc(-c2cnc3c(c2)ncn3C)nc2sc([S+]([O-])C3CCC3)c(N)c12 (centres unmarked) [Example 383]
  IC50: < 2.5 nM

## Cn1nccc1-c1cc(-c2cnc(NCCO)nc2)nc2sc([S@+]([O-])C3CCC3)c(N)c12 [Example 313]
  IC50: < 2.5 nM

## Nc1ncc(-c2cc(-c3ncccc3F)c3c(N)c([S+]([O-])C4CCC4)sc3n2)cn1 (centres unmarked) [Example 77]
  IC50: < 2.5 nM

## Nc1c([S+]([O-])C2CCC2)sc2nc(-c3cnc(N4CC(O)C4)nc3)cc(-c3ccccc3)c12 (centres unmarked) [Example 248]
  IC50: < 2.5 nM

## Cn1nccc1-c1cc(-c2cnc(NCCO)nc2)nc2sc([S@@+]([O-])C3CCC3)c(N)c12 [Example 314]
  IC50: ≥ 10 nM

## Cn1cc(-c2cc(C3CC3)c3c(N)c([S+]([O-])C4CCC4)sc3n2)cn1 (centres unmarked) [Example 277]
  IC50: < 2.5 nM

## COCCC[S+]([O-])c1sc2nc(-c3cnc4nn(C)cc4c3)cc(C(F)(F)F)c2c1N (centres unmarked) [Example 420]
  IC50: < 2.5 nM

## Nc1c([S+]([O-])C2CCC2)sc2nc(-c3cncnc3)cc(C(F)(F)F)c12 (centres unmarked) [Example 204]
  IC50: < 2.5 nM

## Nc1c([S+]([O-])C2CCC2)sc2nc(-c3cnc(NCCO)nc3)cc(-c3ccccc3)c12 (centres unmarked) [Example 44]
  IC50: < 2.5 nM

## Cc1ncc(-c2cc(C3=CCNN3C)c3c(N)c([S+]([O-])C4CCC4)sc3n2)cn1 (centres unmarked) [Example 315]
  IC50: 2.5 to 10 nM

## CN(CCO)c1ncc(-c2cc(-c3ccccc3)c3c(N)c([S@@+]([O-])C4CCC4)sc3n2)cn1 [Example 180]
  IC50: ≥ 10 nM

## COCCC[S+]([O-])c1sc2nc(-c3cncnc3)cc(-c3ccnnc3)c2c1N (centres unmarked) [Example 240]
  IC50: 2.5 to 10 nM

## Cn1nccc1-c1cc(-c2cncnc2)nc2sc([S+]([O-])C3CCC3)c(N)c12 (centres unmarked) [Example 195]
  IC50: < 2.5 nM

## Nc1ncc(-c2cc(-c3ccc(C4COC4)cc3)c3c(N)c([S+]([O-])C4CCC4)sc3n2)cn1 (centres unmarked) [Example 143]
  IC50: < 2.5 nM

## Nc1c([S@@+]([O-])C2CCC2)sc2nc(-c3cnc(NCCOCCO)nc3)cc(-c3ccccc3)c12 [Example 185]
  IC50: ≥ 10 nM

## Nc1c([S+]([O-])C2CCC2)sc2nc(-c3ccc(=O)[nH]c3)cc(-c3ccc(C4COC4)cc3)c12 (centres unmarked) [Example 174]
  IC50: 2.5 to 10 nM

## Nc1c([S+]([O-])C2CCC2)sc2nc(-c3cnc4ncnn4c3)cc(-c3ccccc3)c12 (centres unmarked) [Example 401]
  IC50: < 2.5 nM

## COCCC[S+]([O-])c1sc2nc(-c3cnc(NCCO)nc3)cc(-c3ccc(F)cc3)c2c1N (centres unmarked) [Example 71]
  IC50: 2.5 to 10 nM

## Nc1c([S@+]([O-])C2CCC2)sc2nc(-c3cc(=O)[nH]cn3)cc(-c3ccccc3)c12 [Example 219]
  IC50: < 2.5 nM

## COCCC[S@@+]([O-])c1sc2nc(-c3cnc(N)nc3)cc(-c3ccc(F)cc3)c2c1N [Example 62]
  IC50: < 2.5 nM

## COCC[S+]([O-])c1sc2nc(-c3cnc4nnn(C)c4c3)cc(C3CCC3)c2c1N (centres unmarked) [Example 368]
  IC50: < 2.5 nM

## Nc1c([S@+]([O-])C2CCC2)sc2nc(-c3cncnc3)cc(-c3ccon3)c12 [Example 309]
  IC50: < 2.5 nM

## CC1(O)CN(c2ncc(-c3cc(-c4ccccc4)c4c(N)c([S+]([O-])C5CCC5)sc4n3)cn2)C1 (centres unmarked) [Example 411]
  IC50: 2.5 to 10 nM

## COCCC[S+]([O-])c1sc2nc(-c3cnn(C)c3)cc(C3CC3)c2c1N (centres unmarked) [Example 278]
  IC50: < 2.5 nM

## COCCC[S@@+]([O-])c1sc2nc(-c3cccnc3)nc(-c3ccccc3)c2c1N [Example 54]
  IC50: < 2.5 nM

## COCCC[S+]([O-])c1sc2nc(-c3cncnc3)cc(-c3cnccn3)c2c1N (centres unmarked) [Example 233]
  IC50: < 2.5 nM

## COCC[S+]([O-])c1sc2nc(-c3cnn4ccnc4c3)cc(-c3ccnn3C)c2c1N (centres unmarked) [Example 318]
  IC50: < 2.5 nM

## CNc1ncc(-c2cc(-c3ccnn3C)c3c(N)c([S+]([O-])CCOC)sc3n2)cn1 (centres unmarked) [Example 330]
  IC50: < 2.5 nM

## COCCC[S@@+]([O-])c1sc2nc(-c3cnc(N)nc3)cc(C3CC3)c2c1N [Example 146]
  IC50: < 2.5 nM

## Cn1nccc1-c1cc(-c2cnc3ncn(C)c3c2)nc2sc([S@+]([O-])C3CCC3)c(N)c12 [Example 371]
  IC50: < 2.5 nM

## Nc1c([S+]([O-])C2CCC2)sc2nc(-c3cnn(CCO)c3)cc(-c3ccccc3)c12 (centres unmarked) [Example 272]
  IC50: < 2.5 nM

## COCCC[S@+]([O-])c1sc2nc(-c3cnc4nn(C)cc4c3)cc(C3CCC3)c2c1N [Example 262]
  IC50: ≥ 10 nM

## COCC[S+]([O-])c1sc2nc(-c3cnc4c(cnn4C)c3)cc(-c3ccccc3)c2c1N (centres unmarked) [Example 120]
  IC50: < 2.5 nM

## Nc1c([S+]([O-])C2CCC2)sc2nc(-c3cnc(NCC(CO)CO)nc3)cc(-c3ccccc3)c12 (centres unmarked) [Example 193]
  IC50: < 2.5 nM

## CN(C)CCNc1ncc(-c2cc(-c3ccccc3)c3c(N)c([S+]([O-])C4CCC4)sc3n2)cn1 (centres unmarked) [Example 45]
  IC50: ≥ 10 nM

## Nc1c([S@+]([O-])C2CCC2)sc2nc(-c3cncnc3)cc(-c3ccnn3C3CC3)c12 [Example 215]
  IC50: < 2.5 nM

## COCC[S@@+]([O-])c1sc2nc(-c3cnc4nn(C)cc4c3)nc(-c3ccccc3)c2c1N [Example 433]
  IC50: < 2.5 nM

## CNc1ncc(-c2cc(-c3ncccn3)c3c(N)c([S+]([O-])C4CCC4)sc3n2)cn1 (centres unmarked) [Example 329]
  IC50: < 2.5 nM

## Nc1c([S+]([O-])C2CCC2)sc2nc(-c3cnc(NCCO)nc3)cc(-c3ccc(F)cn3)c12 (centres unmarked) [Example 118]
  IC50: 2.5 to 10 nM

## Nc1c([S+]([O-])C2CCC2)sc2nc(-c3cccnc3)cc(-c3cccnc3)c12 (centres unmarked) [Example 50]
  IC50: < 2.5 nM

## COCC[S+]([O-])c1sc2nc(-c3cnc4c(cnn4C)c3)cc(C3CC3)c2c1N (centres unmarked) [Example 226]
  IC50: < 2.5 nM

## COCCC[S+]([O-])c1sc2nc(-c3cnc(N)nc3)cc(-c3ccc(F)cc3)c2c1N (centres unmarked) [Example 46]
  IC50: < 2.5 nM

## CC(=O)N1CCC(c2cc(-c3ccc(F)cc3)c3c(N)c([S+]([O-])C4CCC4)sc3n2)CC1 (centres unmarked) [Example 59]
  IC50: ≥ 10 nM

## Nc1c([S+]([O-])C2CCC2)sc2nc(-c3cccnc3)cc(C3CCOCC3)c12 (centres unmarked) [Example 43]
  IC50: < 2.5 nM

## COCC[S+]([O-])c1sc2nc(-c3cnc4c(c3)nnn4C)cc(C3CC3)c2c1N (centres unmarked) [Example 244]
  IC50: < 2.5 nM

## Cc1ncc(-c2cc(-c3cnn(C)c3)c3c(N)c([S+]([O-])C4CCC4)sc3n2)cn1 (centres unmarked) [Example 281]
  IC50: < 2.5 nM

## COCC[S+]([O-])c1sc2nc(-c3cnc4c(c3)CNC4=O)cc(-c3ccccc3)c2c1N (centres unmarked) [Example 241]
  IC50: < 2.5 nM

## COCCC[S+]([O-])c1sc2nc(-c3cncnc3)cc(C)c2c1N (centres unmarked) [Example 163]
  IC50: < 2.5 nM

## Nc1c([S+]([O-])C2CCC2)sc2nc(-c3cncnc3)cc(-c3ccc(C4COC4)cn3)c12 (centres unmarked) [Example 128]
  IC50: < 2.5 nM

## CN(CCO)c1ncc(-c2cc(-c3ccccc3)c3c(N)c([S+]([O-])C4CCC4)sc3n2)cn1 (centres unmarked) [Example 144]
  IC50: < 2.5 nM

## Cc1cc(-c2cncnc2)nc2sc([S+]([O-])C3CCC3)c(N)c12 (centres unmarked) [Example 164]
  IC50: < 2.5 nM

## Cn1ccc(-c2cc(-c3cnc4nn(C)cc4c3)nc3sc([S+]([O-])C4CCC4)c(N)c23)n1 (centres unmarked) [Example 341]
  IC50: < 2.5 nM

## Cc1nn(C)cc1-c1cc(-c2cnc(N)nc2)nc2sc([S+]([O-])C3CCC3)c(N)c12 (centres unmarked) [Example 218]
  IC50: < 2.5 nM

## Cn1ccc(-c2cc(-c3cccnc3)c3c(N)c([S+]([O-])C4CCC4)sc3n2)cc1=O (centres unmarked) [Example 90]
  IC50: 2.5 to 10 nM

## COCC[S+]([O-])c1sc2nc(-c3ccc(=O)[nH]c3)cc(-c3ccccc3)c2c1N (centres unmarked) [Example 167]
  IC50: < 2.5 nM

## COCC[S+]([O-])c1sc2nc(-c3cnc4ncn(C)c4c3)cc(-c3ccccc3)c2c1N (centres unmarked) [Example 364]
  IC50: < 2.5 nM

## NCCOCCNc1ncc(-c2cc(-c3ccccc3)c3c(N)c([S+]([O-])C4CCC4)sc3n2)cn1 (centres unmarked) [Example 156]
  IC50: < 2.5 nM

## COCC[S+]([O-])c1sc2nc(-c3cnc(NCCO)nc3)cc(-c3ccccc3)c2c1N (centres unmarked) [Example 126]
  IC50: < 2.5 nM
